The values that follow come from patent US12280121B2, “Immunoconjugates and methods” (Immunome, Inc., priority 2021, dated 2025).

Molecules are shown by their SMILES. Where a name gives a salt, the structure may show the parent alone. Read-outs that look alike come from different tables or passages of the source.

Series [1] deals with Jeko-1. Put plainly: CTG assay (CellTiter-Glo cell viability), Jeko-1, payload compounds. Type of series: cell-based. The conditions noted are these: Homo sapiens. The text has this:
(§1) The CTG assay is a method of determining the number of viable cells in culture based on quantitation of the ATP present, an indicator of metabolically active cells. The cell assay requires the addition of a single reagent, Cell Titer Glo, in which cells are lysed and generation of a luminescent signal is produced. The luminescent signal is proportional to the amount of ATP present. The amount of ATP is directly proportional to the number of cells present in culture. For our assay, cells were ensured to be in log-phase for either Jeko-1 or MDA-MB-468. Cells were transferred to 96 wells and treated with compounds in three-fold serial dilution starting from 1 μM to 0.0000508 μM (10 points dilution), for 72 h. Cell viability was analyzed with CellTiter-Glo® Luminescent Cell Viability Assay (Promega) following manufactures' instruction. Percentage of viable cells in each compound concentration was determined by normalizing with the luminescence of vehicle control and plotted into percentage of viability versus dose response curve by nonlinear fit in GraphPad Prism software.
For orientation: In ATP-based viability assays light output follows the ATP content of the culture.

The subject of series [2] is MDA-MB-468. In words: CTG assay (CellTiter-Glo cell viability), MDA-MB-468, payload compounds. The conditions noted are these: Homo sapiens. It is filed as cell-based.
Text: as §1

Series [3] in a line: Human hepatocyte clearance (HHEP CL). Type of series: in vitro ADME. Further details: CLint scaled / half-life: dose or concentration left out as unconfirmed. The conditions noted are these: both sexes. On the procedure: Suspensions of human hepatocytes (from 10 mixed gender human donors, final concentration 0.5×10^6 cell/mL) in Williams' E medium were incubated for 90 min with a test compound (0.90% acetonitrile and 0.10% DMSO, final concentration […]) and positive controls (7-Ethoxycoumarin, 7-Hydroxycoumarin, 0.90% acetonitrile and 0.10% DMSO, final concentration […]), with constant shaking at about 600 rpm at 37° C. in an incubator at 5% CO2 and 95% humidity. The total volume of incubation was 200 μl. A sample ([…]) was taken out at TO, 15, 30, 60 and 90 min, which was added intermediately to the ice-cold stop solution (acetonitrile with 200 ng/mL of tobutamide and labetalol as internal standard) (125 μl), and vortexed at 500 rpm for 10 min, centrifuged at 3220×g for 20 min at 4° C. Analytical plates are sealed and stored at 4° C. until LCMS analysis. Viability of hepatocytes at pre-incubation was determined to be 84.5%.
(§2) Human liver microsome clearance assay assess metabolism by the cytochrome P450 system (phase I enzymes). These enzymes oxidize substrates by incorporating oxygen atoms into hydrocarbons, thus causing the introduction of hydroxyl groups, or N- O- and S-dealkylation of substrates and forming more polar products easier to be cleared. Human hepatocyte clearance assay measures more broadly the overall cellular metabolism of the test compound (phase I and phase II enzyme pathways). Phase II enzymes catalyze the conjugation reaction of xenobiotic metabolites and charged species, such as glutathione, sulfate, glycine, or glucuronic acid to form even more polar compounds for easier clearance.

Series [4] in a line: Human liver microsome clearance (HLM CL). It is filed as in vitro ADME. How it is done:
Working solution was prepared by adding 5 μL of compound and control stock solution (10 mM in dimethyl sulfoxide, DMSO) to 495 μL of acetonitrile (ACN) (intermediate solution concentration: 100 μM, 99% CAN and 1% DMSO. The appropriate concentrations of microsome working solutions were prepared in 100 mM potassium phosphate buffer. After reaction plates containing mixtures of compound and microsomes were pre-incubated at 37° C. for 10 min, […] of 2 mM of NADPH and 2 mM of MgCl2 solution was added to start the reaction. The final concentrations of incubation medium were as follows: microsome—0.5 mg protein/mL, test compound/control […], NADPH—1 mM, MgCl2 —1 mM, acetonitrile 0.99%, DMSO 0.01%. Incubations were performed at 37° C. for 60 min. Samples were taken out at TO, T5, T15, T30, T45 and T60, which was added intermediately to the ice-cold stop solution (acetonitrile with 200 ng/mL of tobutamide and labetalol as internal standard) (125 μl), shaken for 10 min, centrifuged at 4000 rpm for 20 min at 4° C. Analytical plates were analyzed by LCMS.
as §2
(Microsomes from liver hold many membrane-bound enzymes, among them those of drug oxidation.)

Series [5] in a line: PAMPA (Parallel Artificial Membrane Permeability Assay). Type of series: physicochemical. The text has this:
PAMPA is a method which determines the permeability of substances from a donor compartment, through a lipid-infused artificial membrane into an acceptor compartment. See Ottaviani, G.; Martel, S.; Carrupt, P-A. “Parallel Artificial Membrane Permeability Assay: A New Membrane for the Fast Prediction of Passive Human Skin Permeability”, Journal of Medicinal Chemistry, 2006, 49 (13), 3948-3954). A multi-well microtitre plate is used for the donor and a membrane/acceptor compartment is placed on top; the whole assembly is commonly referred to as a “sandwich”. At the beginning of the test, the drug is added to the donor compartment, and the acceptor compartment is drug-free. After an incubation period which may include stirring, the sandwich is separated, and the amount of drug is measured in each compartment. Mass balance allows calculation of drug that remains in the membrane.
The PAMPA was performed by Pion Inc using the GIT-0 lipid and 5 μM donor solution in pH 5.0 and pH 7.4 PRISMA buffer (containing 0.05% DMSO). The higher PAMPA data has been associated with better bystander killing. (Ogitani Y.; Hagihara K.; Oitate, M.; Naito, H.; Agatsuma T. “Bystander killing effect of DS-8201a, a novel anti-human epidermal growth factor receptor 2 antibody-drug conjugate, in tumors with human epidermal growth factor receptor 2 heterogeneity” Cancer Science, 2016, 107 (7), 1039-1046).
On the technique in general: PAMPA measures passive passage across an artificial lipid membrane.

[6] abbreviates: JeKo-1, 72 h, CellTiter-Glo, read-out: JeKo-1 IC50.
Where [7] appears, read: MDA-MB-468, 72 h, CellTiter-Glo, read-out: MDA-MB-468 IC50.
The mark [8] stands for this setting: human liver microsomes 0.5 mg protein/mL, NADPH, 60 min, read-out: HLM Cl (human liver microsome clearance).

With `CC[C@@]1(O)C(=O)OCc2c1cc1n(c2=O)Cc2c-1nc1cc(F)c(C)c3c1c2[C@H](OCCO)CC3` (single isomer, unassigned) [Compound 5-47], the IC50 (commonly the concentration that gives 50% inhibition) came to 1.5 nM in series [1] (setting [6]) and 6.3 nM in series [2] (setting [7]). The CLint scaled in series [3] (human, hepatocytes) worked out at 53.7 mL/min/kg; in series [4] (human, microsomes) it was 17.3 mL/min/kg. For the same molecule, the half-life is 71.7 min in series [3] (human, hepatocytes) and 72.2 min in series [4] (human, microsomes). Moreover, in series [5] (5 μM, pH 5), the “PAMPA Pe (10^−6 cm/s) pH 5.0” value is listed as 76/.1 10^−6 cm/s. In addition, the Papp at 5 μM in series [5] (pH 7.4) was found to be 11.6 ×10⁻⁶ cm/s.
For the molecule `CC[C@@]1(O)C(=O)OCc2c1cc1n(c2=O)Cc2c-1nc1cc(F)c(C)c3c1c2[C@](C)(OCCO)CC3` (single isomer, unassigned) [Compound 14-92], the IC50 in series [1] (setting [6]) stood at 1.2 nM; in series [2] (setting [7]), 14.2 nM. Besides, the CLint scaled in series [3] (human, hepatocytes) came out at 51.3 mL/min/kg; in series [4] (human, microsomes) it was 19.2 mL/min/kg. The half-life came out at 75.1 min in series [3] (human, hepatocytes) and 65 min in series [4] (human, microsomes). Moreover, the Papp at 5 μM in series [5] (pH 5) came to 69.1 ×10⁻⁶ cm/s; in series [5] (pH 7.4), 4.5 ×10⁻⁶ cm/s.
In the case of `CC[C@@]1(O)C(=O)OCc2c1cc1n(c2=O)Cc2c-1nc1cc(F)c(C)c3c1c2[C@](C)(N)CC3` (single isomer, unassigned) [Compound 8-72, hydrochloride], the IC50 in series [1] (setting [6]) is 1.5 nM; in series [2] (setting [7]) it was 7.7 nM. The CLint scaled in series [3] (human, hepatocytes) was 79.1 mL/min/kg; in series [4] (human, microsomes), 35.9 mL/min/kg. The half-life in series [3] (human, hepatocytes) is 49 min; in series [4] (human, microsomes), 35 min. For the same molecule, the results for the Papp at 5 μM in series [5] (pH 5) and in series [5] (pH 7.4) were 80.8 ×10⁻⁶ cm/s and 8.4 ×10⁻⁶ cm/s, respectively.
As to `CC[C@@]1(O)C(=O)OCc2c1cc1n(c2=O)Cc2c-1nc1cc(F)c(C)c3c1c2[C@](C)(NCCO)CC3.Cl` [Compound 17-96, (1R,9S)-9-ethyl-5-fluoro-9-hydroxy-1-((2-hydroxyethyl)amino)-1,4-dimethyl-2,3,12,15-tetrahydrobenzo[de]pyrano[3′,4′:6,7]indolizino [1,2-b]quinoline-10,13(1H,9H)-dione hydrochloride], the concentration for half-maximal inhibition (IC50) in series [1] (setting [6]) came out at 2.1 nM; in series [2] (setting [7]) it was 22 nM. Also, the half-life in series [3] (human hepatocytes, 90 min incubation, read-out: HHEP (T1/2)) came out at 82 min; in series [4] (human liver microsomes 0.5 mg protein/mL, NADPH, 60 min, read-out: HLM (T1/2)), 17.5 min. In addition, the CLint scaled in series [3] (human hepatocytes, 90 min incubation, read-out: HHEP Cl (human hepatocytes intrinsic clearance)) stood at 47.1 mL/min/kg; in series [4] (setting [8]), 71.3 mL/min/kg. Also, the Papp at 5 μM in series [5] (pH 5.0 PRISMA buffer, GIT-0 lipid, 5 μM donor solution, read-out: PAMPA Pe pH 5.0) is 62.6 ×10⁻⁶ cm/s; in series [5] (pH 7.4 PRISMA buffer, GIT-0 lipid, 5 μM donor solution, read-out: PAMPA Pe pH 7.4), 4.3 ×10⁻⁶ cm/s.
`CC[C@@]1(O)C(=O)OCc2c1cc1n(c2=O)Cc2c-1nc1cc(F)c(C)c3c1c2[C@@](C)(O)CC3` (single isomer, unassigned) [Compound 13-84]: the IC50 in series [1] (setting [6]) was 0.61 nM; in series [2] (setting [7]), 5.9 nM. Further, the CLint scaled in series [3] (human, hepatocytes) came to 112 mL/min/kg; in series [4] (human, microsomes), 58.9 mL/min/kg. Moreover, the half-life in series [3] (human, hepatocytes) was 34 min; in series [4] (human, microsomes), 21 min. Further, the Papp at 5 μM in series [5] (pH 5) came to 64.4 ×10⁻⁶ cm/s; in series [5] (pH 7.4) it was 7.6 ×10⁻⁶ cm/s.
In the case of `CC[C@@]1(O)C(=O)OCc2c1cc1n(c2=O)Cc2c-1nc1cc(F)c(C)c3c1c2[C@](C)(O)CC3` (single isomer, unassigned) [Compound 13-85], the IC50 in series [1] (setting [6]) was 2.6 nM; in series [2] (setting [7]), 36.2 nM. Also, the CLint scaled was found to be 75.7 mL/min/kg in series [3] (human, hepatocytes) and 58.3 mL/min/kg in series [4] (human, microsomes). Also, the half-life in series [3] (human, hepatocytes) came to 51 min; in series [4] (human, microsomes), 21 min. Further, the Papp at 5 μM in series [5] (pH 5) is 69.7 ×10⁻⁶ cm/s; in series [5] (pH 7.4), 6 ×10⁻⁶ cm/s.
Consider `CC[C@@]1(O)C(=O)OCc2c1cc1n(c2=O)Cc2c-1nc1cc(F)c(C)c3c1c2[C@@](C)(OCCO)CC3` (single isomer, unassigned) [Compound 14-91], for which the values for the IC50 in series [1] (setting [6]) and in series [2] (setting [7]) were 1.4 nM and 17.6 nM, respectively. Also, the CLint scaled in series [3] (human, hepatocytes) amounted to 63.4 mL/min/kg; in series [4] (human, microsomes), 46.5 mL/min/kg. Further, the half-life stood at 60.8 min in series [3] (human, hepatocytes) and 26.8 min in series [4] (human, microsomes). Further, the Papp at 5 μM was 67.8 ×10⁻⁶ cm/s in series [5] (pH 5) and 5.6 ×10⁻⁶ cm/s in series [5] (pH 7.4).
Turning to `CC[C@@]1(O)C(=O)OCc2c1cc1n(c2=O)Cc2c-1nc1cc(F)c(C)c3c1c2[C@@H](N)CCC3` (single isomer, unassigned) [Compound 7-59, methanesulfonate], the results for the IC50 in series [1] (setting [6]) and in series [2] (setting [7]) were 2.9 nM and 14.8 nM, respectively. Moreover, the CLint scaled in series [3] (human, hepatocytes) was 69.4 mL/min/kg; in series [4] (human, microsomes), 33.7 mL/min/kg. Moreover, the half-life in series [3] (human, hepatocytes) amounted to 55.5 min; in series [4] (human, microsomes), 37 min.
With `CC[C@@]1(O)C(=O)OCc2c1cc1n(c2=O)Cc2c-1nc1cc(F)c(C)c3c1c2[C@@H](N)CC3.CS(=O)(=O)O` [Exatecan, (1S,9S)-1-amino-9-ethyl-5-fluoro-9-hydroxy-4-methyl-2,3,12,15-tetrahydro-benzo[de]pyrano [3′,4′:6,7]indolizino[1,2-b]quinoline-10,13(1H,9H)-dione methanesulfonate, reference compound], the IC50 in series [1] (JeKo-1, 72 h, read-out: JeKo-1 IC50 (nM)) was determined as 0.59 nM; in series [2] (MDA-MB-468, 72 h, read-out: MDA-MB-468 IC50 (nM)), 6.2 nM. For the same molecule, the CLint scaled in series [3] (human hepatocytes in suspension, human hepatocytes, 90 min incubation, read-out: HHEP Cl (human hepatocytes intrinsic clearance)) came to 59.3 mL/min/kg; in series [4] (setting [8]) it was 11.7 mL/min/kg. In addition, the half-life turned out to be 65 min in series [3] (human, hepatocytes) and 106 min in series [4] (human, microsomes). The values for the Papp in series [5] (pH 5) and in series [5] (pH 7.4) were 37.2 ×10⁻⁶ cm/s and 5.7 ×10⁻⁶ cm/s, respectively.
Take `CC[C@@]1(O)C(=O)OCc2c1cc1n(c2=O)Cc2c-1nc1cc(F)c(C)c3c1c2[C@H](N)CCC3` (single isomer, unassigned) [Compound 7-60, methanesulfonate]: the 50% inhibitory concentration (IC50) in series [1] (setting [6]) was 2.1 nM; in series [2] (setting [7]), 14.9 nM. Also, the CLint scaled in series [3] (human, hepatocytes) is 64.5 mL/min/kg; in series [4] (human, microsomes), 40.8 mL/min/kg. Also, the half-life was 59.7 min in series [3] (human, hepatocytes) and 30.6 min in series [4] (human, microsomes).
